Data as given in ChEMBL document CHEMBL1201862, “PubChem BioAssay data set” (2004).
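These data come from cells grown in 96-well plates and exposed to compound for 48 hours at five concentrations. GI50 marks 50% less growth.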 Calls of active or inactive are those of the source. No stated cut-off is given here; in the data, active = GI50 up to about 1.1 µM and inactive = higher.

Tests used:
Assay in all cases: NCI-60 cell line screen, 48 h
BT-549 = system: BT-549
786-0 = system: 786-0
T47D = system: T47D
SK-MEL-5 = system: SK-MEL-5
MDA-N = system: MDA-N
PC-3 = system: PC-3
CCRF-CEM = system: CCRF-CEM
NCI-H460 = system: NCI-H460
SK-MEL-2 = system: SK-MEL-2
SNB-19 = system: SNB-19
MDA-MB-231 = system: MDA-MB-231
UACC-62 = system: UACC-62
HOP-62 = system: HOP-62
SK-MEL-28 = system: SK-MEL-28
DU-145 = system: DU-145
K562 = system: K562
OVCAR-5 = system: OVCAR-5
SF-268 = system: SF-268
UACC-257 = system: UACC-257
SR = system: SR
U-251 = system: U-251
SK-OV-3 = system: SK-OV-3
HCT-15 = system: HCT-15
Malme-3M = system: Malme-3M
MDA-MB-435 = system: MDA-MB-435
HT-29 = system: HT-29
Hs-578T = system: Hs-578T
RPMI-8226 = system: RPMI-8226
HCT-116 = system: HCT-116
TK-10 = system: TK-10
NCI/ADR-RES = system: NCI/ADR-RES
IGROV-1 = system: IGROV-1
A498 = system: A498
EKVX = system: EKVX
NCI-H522 = system: NCI-H522
LOX IMVI = system: LOX IMVI
SF-295 = system: SF-295
HL-60 = system: HL-60
MCF7 = system: MCF7
SN12C = system: SN12C
SNB-75 = system: SNB-75
SF-539 = system: SF-539
ACHN = system: ACHN
KM12 = system: KM12
UO-31 = system: UO-31
OVCAR-4 = system: OVCAR-4
RXF 393 = system: RXF 393
M14 = system: M14
CAKI-1 = system: CAKI-1
COLO 205 = system: COLO 205
SW-620 = system: SW-620
MOLT-4 = system: MOLT-4
OVCAR-8 = system: OVCAR-8
OVCAR-3 = system: OVCAR-3
NCI-H23 = system: NCI-H23
HCC 2998 = system: HCC 2998
A549 = system: A549
NCI-H226 = system: NCI-H226
HOP-92 = system: HOP-92

O=c1cc(CNC2CCCC2)[nH]c(=O)[nH]1
GI50 (BT-549): > 100 µM (inactive) | GI50 (786-0): > 100 µM (inactive) | GI50 (T47D): > 100 µM (inactive) | GI50 (SK-MEL-5): > 100 µM (inactive) | GI50 (MDA-N): > 100 µM (inactive) | GI50 (PC-3): > 100 µM (inactive) | GI50 (CCRF-CEM): > 100 µM (inactive) | GI50 (NCI-H460): > 100 µM (inactive) | GI50 (SK-MEL-2): > 100 µM (inactive) | GI50 (SNB-19): > 100 µM (inactive) | GI50 (MDA-MB-231): > 100 µM (inactive) | GI50 (UACC-62): > 100 µM (inactive) | GI50 (HOP-62): > 100 µM (inactive) | GI50 (SK-MEL-28): > 100 µM (inactive) | GI50 (DU-145): > 100 µM (inactive) | GI50 (K562): > 100 µM (inactive) | GI50 (OVCAR-5): > 100 µM (inactive) | GI50 (SF-268): > 100 µM (inactive) | GI50 (UACC-257): > 100 µM (inactive) | GI50 (SR): > 100 µM (inactive) | GI50 (U-251): > 100 µM (inactive) | GI50 (SK-OV-3): > 100 µM (inactive) | GI50 (HCT-15): > 100 µM | GI50 (Malme-3M): > 100 µM (inactive) | GI50 (MDA-MB-435): > 100 µM (inactive) | GI50 (HT-29): > 100 µM (inactive) | GI50 (Hs-578T): > 100 µM (inactive) | GI50 (RPMI-8226): > 100 µM (inactive) | GI50 (HCT-116): > 100 µM (inactive) | GI50 (TK-10): > 100 µM (inactive) | GI50 (NCI/ADR-RES): > 100 µM (inactive) | GI50 (IGROV-1): > 100 µM (inactive) | GI50 (A498): > 100 µM (inactive) | GI50 (EKVX): > 100 µM (inactive) | GI50 (NCI-H522): > 100 µM (inactive) | GI50 (LOX IMVI): > 100 µM (inactive) | GI50 (SF-295): > 100 µM (inactive) | GI50 (HL-60): > 100 µM (inactive) | GI50 (MCF7): > 100 µM (inactive) | GI50 (SN12C): > 100 µM (inactive) | GI50 (SNB-75): > 100 µM (inactive) | GI50 (SF-539): > 100 µM (inactive) | GI50 (ACHN): > 100 µM (inactive) | GI50 (KM12): > 100 µM (inactive) | GI50 (UO-31): > 100 µM (inactive) | GI50 (OVCAR-4): > 100 µM (inactive) | GI50 (RXF 393): > 100 µM (inactive) | GI50 (M14): > 100 µM (inactive) | GI50 (CAKI-1): > 100 µM (inactive) | GI50 (COLO 205): > 100 µM (inactive) | GI50 (SW-620): > 100 µM (inactive) | GI50 (MOLT-4): > 100 µM (inactive) | GI50 (OVCAR-8): > 100 µM (inactive) | GI50 (OVCAR-3): > 100 µM (inactive) | GI50 (NCI-H23): > 100 µM (inactive) | GI50 (HCC 2998): > 100 µM (inactive) | GI50 (A549): > 100 µM (inactive)

Cc1ccc(Cc2n[nH]c(=O)[nH]2)cc1
GI50 (NCI-H226): > 100 µM (inactive) | GI50 (BT-549): > 100 µM (inactive) | GI50 (786-0): > 100 µM (inactive) | GI50 (T47D): > 100 µM (inactive) | GI50 (SK-MEL-5): > 100 µM (inactive) | GI50 (MDA-N): > 100 µM (inactive) | GI50 (PC-3): > 100 µM (inactive) | GI50 (CCRF-CEM): > 100 µM (inactive) | GI50 (NCI-H460): > 100 µM (inactive) | GI50 (SK-MEL-2): > 100 µM (inactive) | GI50 (SNB-19): > 100 µM (inactive) | GI50 (MDA-MB-231): > 100 µM (inactive) | GI50 (UACC-62): > 100 µM (inactive) | GI50 (HOP-62): > 100 µM (inactive) | GI50 (SK-MEL-28): > 100 µM (inactive) | GI50 (DU-145): > 100 µM (inactive) | GI50 (K562): > 100 µM (inactive) | GI50 (OVCAR-5): > 100 µM (inactive) | GI50 (UACC-257): > 100 µM (inactive) | GI50 (SR): > 100 µM (inactive) | GI50 (U-251): > 100 µM (inactive) | GI50 (SK-OV-3): > 100 µM (inactive) | GI50 (HCT-15): > 100 µM | GI50 (Malme-3M): > 100 µM (inactive) | GI50 (MDA-MB-435): > 100 µM (inactive) | GI50 (HT-29): > 100 µM (inactive) | GI50 (Hs-578T): > 100 µM (inactive) | GI50 (HCT-116): > 100 µM (inactive) | GI50 (TK-10): > 100 µM (inactive) | GI50 (NCI/ADR-RES): > 100 µM (inactive) | GI50 (IGROV-1): > 100 µM (inactive) | GI50 (A498): > 100 µM (inactive) | GI50 (EKVX): > 100 µM (inactive) | GI50 (LOX IMVI): > 100 µM (inactive) | GI50 (SF-295): > 100 µM (inactive) | GI50 (HL-60): > 100 µM (inactive) | GI50 (MCF7): 28.6 µM (inactive) | GI50 (SN12C): > 100 µM (inactive) | GI50 (HOP-92): > 100 µM (inactive) | GI50 (SNB-75): > 100 µM (inactive) | GI50 (SF-539): > 100 µM (inactive) | GI50 (ACHN): > 100 µM (inactive) | GI50 (KM12): > 100 µM (inactive) | GI50 (UO-31): > 100 µM (inactive) | GI50 (OVCAR-4): > 100 µM (inactive) | GI50 (M14): > 100 µM (inactive) | GI50 (CAKI-1): > 100 µM (inactive) | GI50 (COLO 205): > 100 µM (inactive) | GI50 (SW-620): > 100 µM (inactive) | GI50 (MOLT-4): > 100 µM (inactive) | GI50 (OVCAR-8): > 100 µM (inactive) | GI50 (OVCAR-3): > 100 µM (inactive) | GI50 (NCI-H23): > 100 µM (inactive) | GI50 (HCC 2998): > 100 µM (inactive) | GI50 (A549): > 100 µM (inactive)

CC(=O)OC(OC(C)=O)c1c2ccccc2cc2ccccc12
GI50 (NCI-H226): 17.9 µM (inactive) | GI50 (BT-549): 14.9 µM (inactive) | GI50 (786-0): 20.3 µM (inactive) | GI50 (T47D): 17.2 µM (inactive) | GI50 (SK-MEL-5): 11.9 µM (inactive) | GI50 (MDA-N): 22 µM (inactive) | GI50 (PC-3): 3.59 µM (inactive) | GI50 (CCRF-CEM): 2.39 µM (inactive) | GI50 (NCI-H460): 14.6 µM (inactive) | GI50 (SNB-19): 14.8 µM (inactive) | GI50 (MDA-MB-231): 18 µM (inactive) | GI50 (UACC-62): 15.9 µM (inactive) | GI50 (DU-145): 27.9 µM (inactive) | GI50 (K562): 3.56 µM (inactive) | GI50 (OVCAR-5): 30.5 µM (inactive) | GI50 (SF-268): 18.4 µM (inactive) | GI50 (UACC-257): 21 µM (inactive) | GI50 (SR): 9.53 µM (inactive) | GI50 (U-251): 5.98 µM (inactive) | GI50 (SK-OV-3): 20.9 µM (inactive) | GI50 (HCT-15): 7.55 µM | GI50 (MDA-MB-435): 24.6 µM (inactive) | GI50 (HT-29): 13.4 µM (inactive) | GI50 (Hs-578T): 23.2 µM (inactive) | GI50 (RPMI-8226): 16.6 µM (inactive) | GI50 (HCT-116): 10.3 µM (inactive) | GI50 (TK-10): 20.4 µM (inactive) | GI50 (NCI/ADR-RES): 8.34 µM (inactive) | GI50 (IGROV-1): 21.2 µM (inactive) | GI50 (A498): 17.7 µM (inactive) | GI50 (EKVX): 20 µM (inactive) | GI50 (LOX IMVI): 4.35 µM (inactive) | GI50 (SF-295): 20.7 µM (inactive) | GI50 (HL-60): 23.7 µM (inactive) | GI50 (MCF7): 16.5 µM (inactive) | GI50 (SN12C): 12.9 µM (inactive) | GI50 (HOP-92): 21.4 µM (inactive) | GI50 (SNB-75): 17.3 µM (inactive) | GI50 (SF-539): 14.8 µM (inactive) | GI50 (ACHN): 24.1 µM (inactive) | GI50 (KM12): 6.93 µM (inactive) | GI50 (UO-31): 19.3 µM (inactive) | GI50 (RXF 393): 13.3 µM (inactive) | GI50 (M14): 20.5 µM (inactive) | GI50 (CAKI-1): 30.5 µM (inactive) | GI50 (COLO 205): 17.8 µM (inactive) | GI50 (SW-620): 3.18 µM (inactive) | GI50 (MOLT-4): 2.78 µM (inactive) | GI50 (OVCAR-8): 15.5 µM (inactive) | GI50 (OVCAR-3): 21.4 µM (inactive) | GI50 (NCI-H23): 25.1 µM (inactive) | GI50 (HCC 2998): 15.6 µM (inactive) | GI50 (A549): 19.1 µM (inactive)
